Assay results published in EPA's CvTdb concentration-time database (doi:10.5012/bkcs.2003.24.5.559).

Test system: rat
Assay: concentration in urine after dosing
Settings: dosed: benzo(a)pyrene, 20 mg/kg, iv, male, Sprague-Dawley

Oc1ccc2ccc3cc4ccccc4c4ccc1c2c34 [1-hydroxybenzo(a)pyrene]
Settings	concentration in urine [ng/mL]
3.699 h	0.371
7.645 h	0.0295
10.85 h	0.0167
22.69 h	1.58
28.98 h	3.02
34.9 h	5.24
46.73 h	2.31
52.9 h	2.18
58.94 h	1.1
77.07 h	0.514
94.7 h	0.0397

Oc1ccc2ccc3c4ccccc4cc4ccc1c2c43 [3-hydroxybenzo(a)pyrene]
Settings	concentration in urine [ng/mL]
4.071 h	0.145
8.015 h	0.0241
23.16 h	5.11
28.88 h	6.99
35.11 h	8.63
47.07 h	6.84
52.93 h	6.1
59.03 h	2.19
76.84 h	0.0482
95.04 h	0.289

c1ccc2c(c1)cc1ccc3cccc4ccc2c1c34 [benzo(a)pyrene]
Settings	concentration in urine [ng/mL]
4.13 h	3.27
7.866 h	0.98
11.07 h	0.98
23.06 h	10.1
29.09 h	126
35.2 h	1.96
47.07 h	0.98
52.8 h	0.654
58.8 h	0.654
76.8 h	0.654
94.93 h	0.654
